Laboratory results reported in patent US20240270821A1, “GIP/GLP1/GCG TRI-RECEPTOR AGONISTS AND USES THEREOF” (priority 2023, published 2024).
Starred links: 1 amine or outer side, 2 acyl side, 3 side chain; linkers in the order of their positions; H or OH if unused. Non-standard residues stand in square brackets, D forms with d. Groups on a side chain read outwards from the residue. *: point of attachment. C20 diacid = O=C(O)CCCCCCCCCCCCCCCCCCC(=O)*; C18 diacid = O=C(O)CCCCCCCCCCCCCCCCC(=O)*; γGlu = O=C(O)[C@H](CCC(=O)[*:2])N[*:1]; αMe4Pal = C[C@](N)(Cc1ccncc1)C(=O)O; 4Pal = N[C@@H](Cc1ccncc1)C(=O)O; αMeL = CC(C)C[C@](C)(N)C(=O)O; Orn = NCCC[C@H](N)C(=O)O; Dap = NC[C@H](N)C(=O)O; AEEA = NCCOCCOCC(=O)O; Aib = CC(C)(N)C(=O)O

Tests used:
Type in all cases: cell-based
[1] = molecular target: human GLP1-R (Homo sapiens, UniProt P43220); test: GLP1-R internalization assay in HEK293 cells; details: for EC50: HEK293 cells expressing SNAP-GLP-1R, read-out: GLP1R Internalization EC50; for Internalization % TOP: normalized to maximum concentration of GLP-1 (100%)
human GLP1-R, sequence (P43220 24-463): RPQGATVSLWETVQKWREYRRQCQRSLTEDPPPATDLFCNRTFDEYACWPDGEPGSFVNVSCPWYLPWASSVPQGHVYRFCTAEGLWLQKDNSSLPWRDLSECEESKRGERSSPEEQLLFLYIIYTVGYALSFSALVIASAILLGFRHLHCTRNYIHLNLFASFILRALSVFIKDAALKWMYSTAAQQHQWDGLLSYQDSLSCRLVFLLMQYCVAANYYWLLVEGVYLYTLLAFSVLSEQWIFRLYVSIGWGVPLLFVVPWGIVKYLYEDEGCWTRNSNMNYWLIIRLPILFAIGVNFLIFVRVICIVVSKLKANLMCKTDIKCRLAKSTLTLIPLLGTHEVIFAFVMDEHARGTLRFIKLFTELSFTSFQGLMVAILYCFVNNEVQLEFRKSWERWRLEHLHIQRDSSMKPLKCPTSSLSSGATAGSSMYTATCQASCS

[2] = molecular target: hGcgR (Homo sapiens, UniProt P47871); test: Functional cAMP activation in the presence of 0.1% casein (no HSA); details: in the presence of 0.1% casein (no HSA); geometric mean; read-out: Relative cAMP EC50, hGcgR;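 also: intracellular cAMP rise after 30 min at 37 °C, read by HTRF against a cAMP standard curve, scaled from buffer only (0%) to maximal control ligand response (100%)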
hGcgR, sequence (P47871 26-477): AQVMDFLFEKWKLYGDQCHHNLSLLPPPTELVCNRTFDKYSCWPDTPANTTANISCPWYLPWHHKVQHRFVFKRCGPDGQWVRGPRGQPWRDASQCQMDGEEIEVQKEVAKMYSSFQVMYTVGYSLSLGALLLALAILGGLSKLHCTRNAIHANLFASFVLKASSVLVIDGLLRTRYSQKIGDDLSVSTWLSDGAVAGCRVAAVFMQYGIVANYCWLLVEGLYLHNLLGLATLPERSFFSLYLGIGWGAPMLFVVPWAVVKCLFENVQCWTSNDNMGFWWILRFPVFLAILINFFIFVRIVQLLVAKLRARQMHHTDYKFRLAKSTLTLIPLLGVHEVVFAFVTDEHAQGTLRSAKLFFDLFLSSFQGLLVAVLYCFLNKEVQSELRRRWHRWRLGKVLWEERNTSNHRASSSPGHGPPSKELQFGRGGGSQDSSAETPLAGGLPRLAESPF

[3] = molecular target: T1, hGLP-1R (Homo sapiens, UniProt P43220); test: Functional cAMP activity in the presence of 1% HSA; details: read-out: cAMP Rel EC50, hGLP-1R
T1 sequence (P43220 24-463): as the sequence (P43220 24-463) above

[4] = molecular target: T1, hGLP-1R; test: Functional cAMP activation in the presence of 0.1% casein (no HSA); details: in the presence of 0.1% casein (no HSA); geometric mean; read-out: Relative cAMP EC50, hGLP-1R;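 as to Relative cAMP EC50, hGIPR: intracellular cAMP rise after 30 min at 37 °C read by HTRF against a standard curve, scaled between buffer alone (0%) and top control ligand concentration (100%), four-parameter fit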;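 as to Relative cAMP EC50, hGLP-1R: intracellular cAMP rise after 30 min at 37 °C read by HTRF, normalized between buffer only (0%) and maximal control ligand (100%), four-parameter variable-slope fit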
[5] = molecular target: T2, hGIPR (Homo sapiens, UniProt P48546); test: as above; details: in the presence of 0.1% casein (no HSA); geometric mean; read-out: Relative cAMP EC50, hGIPR;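 also: intracellular cAMP rise after 30 min at 37 °C read by HTRF against a standard curve, scaled between buffer alone (0%) and top control ligand concentration (100%), four-parameter fit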
T2 sequence (P48546 22-466): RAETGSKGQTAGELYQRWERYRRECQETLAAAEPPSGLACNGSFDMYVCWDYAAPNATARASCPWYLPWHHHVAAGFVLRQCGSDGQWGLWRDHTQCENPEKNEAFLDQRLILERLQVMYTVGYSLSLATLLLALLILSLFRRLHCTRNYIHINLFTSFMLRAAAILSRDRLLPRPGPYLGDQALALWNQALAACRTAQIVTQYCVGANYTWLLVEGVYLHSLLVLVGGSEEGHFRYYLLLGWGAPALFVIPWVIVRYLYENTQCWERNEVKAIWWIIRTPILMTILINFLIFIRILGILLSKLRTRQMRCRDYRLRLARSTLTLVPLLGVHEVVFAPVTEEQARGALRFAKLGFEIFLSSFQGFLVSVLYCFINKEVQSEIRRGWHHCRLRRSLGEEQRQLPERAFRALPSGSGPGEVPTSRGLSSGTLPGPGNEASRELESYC
Experimental: After a 30-minute incubation at 37° C., the resulting increase in intracellular cAMP is quantitatively determined using the CisBio CAMP Dynamic 2 HTRF Assay Kit (62AM4PEJ). Briefly, cAMP levels within the cell are detected by adding the cAMP-d2 conjugate in cell lysis buffer followed by the antibody anti-cAMP-Eu^3+-Cryptate, also in cell lysis buffer.
Intracellular cAMP levels are determined by extrapolation using a standard curve. Dose response curves of compounds are plotted as the percentage of stimulation normalized to minimum (buffer only) and maximum (maximum concentration of each control ligand) values and analyzed using a four parameter non-linear regression fit with a variable slope (Genedata Screener 13). EC50 is the concentration of compound causing half-maximal simulation in a dose response curve. Each relative EC50 value for the Geometric mean calculation is determined from a curve fitting.

[6] = molecular target: human GcgR (Homo sapiens, UniProt P47871); test: Functional cAMP activity in the presence of 1% HSA; details: read-out: cAMP Rel EC50, hGcgR
human GcgR, sequence (P47871 26-477): as the sequence (P47871 26-477) above

[7] = molecular target: T2, hGIPR; test: Functional cAMP activity in the presence of 1% HSA; details: read-out: cAMP Rel EC50, hGIPR

Substance | EC50 [1] [nM] | Internalization % TOP [1] [%] | EC50 [2] [nM] | EC50 [3] [nM] | EC50 [4] [nM] | EC50 [5] [nM] | EC50 [6] [nM] | EC50 [7] [nM]
H-Y[Aib]QGTFTSDFS[Orn][αMeL]LDKK([AEEA-γGlu-C18 diacid])AQ[Aib]AFIEYLLEGG[4Pal]SSGAPPPGGS-NH2 [Example 163] | 143 | 37.8 | 5.6 | 762 | 6.5 | 0.376 | 790 | 52
H-Y[Aib]QGTFTSDFS[Orn][αMeL]LDKK([AEEA-γGlu-C18 diacid])AQ[Aib]AFIEYLLE[Aib]GPSSGAPPPSGE-NH2 [Example 110] | 28.3 | 42.5 | 2.45 | 821 | 2.99 | 0.102 | 627 | 19.8
H-Y[Aib]QGTFTSDFS[Orn][αMeL]LDKK([AEEA-γGlu-C18 diacid])AQ[Aib]AFIEYLLE[Aib]GPSSGAPPPSGS-NH2 [Example 74] | 72.7 | 53.3 | 2.53 | 627 | 3.32 | 0.0708 | 709 | 15.9
H-Y[Aib]QGTFTSDFS[Orn][αMeL]LDKK([AEEA-γGlu-C18 diacid])AQ[Aib]AFIEYLLE[Aib]GPSSGAPPPSGT-NH2 [Example 200] | 86.1 | 39.2 | 2.83 | 395 | 3.19 | 0.0739 | 360 | 13.7
H-Y[Aib]QGTFTSDFS[Orn][αMeL]LDKK([AEEA-γGlu-C18 diacid])AQ[Aib]AFIEYLLE[Aib]GPSSG[Aib]PPPSGS-NH2 [Example 239] | 72.6 | 42.9 | 2.14 | 419 | 2.9 | 0.0503 | 693 | 12
H-Y[Aib]QGTFTSDFS[Orn][αMeL]LDKK([AEEA-γGlu-C18 diacid])AQ[Aib]AFIEYLLE[Aib]G[4Pal]SSGAPPPSGE-NH2 [Example 248] | 67.4 | 39.5 | 3.36 | 438 | 3.17 | 0.0861 | 241 | 10.6
H-Y[Aib]QGTFTSDFS[Orn][αMeL]LDKK([AEEA-γGlu-C18 diacid])AQ[αMe4Pal]AFIEYLIE[Aib]GESSGAPPPSGE-NH2 [Example 228] | 39 | 35 | 1.38 | 311 | 1.52 | 0.147 | 322 | 37.8
H-Y[Aib]QGTFTSDFS[Orn][αMeL]LDKK([AEEA-γGlu-C18 diacid])AQ[αMe4Pal]AFIEYLIE[Aib]GESSGAPPPSGS-NH2 [Example 229] | 42.4 | 31.4 | 2.3 | 249 | 1.58 | 0.179 | 332 | 27.8
H-Y[Aib]QGTFTSDFS[Orn][αMeL]LDKK([AEEA-γGlu-C20 diacid])AQ[Aib]AFIEWLLEGGPSSGAPPPSGS-NH2 [Example 78] | 78.2 | 55 | 7.06 | 560 | 1.93 | 0.228 | 2640 | 78.4
H-Y[Aib]QGTFTSDFS[Orn][αMeL]LDKK([AEEA-γGlu-γGlu-C18 diacid])AQ[Aib]AFIEYLLE[Aib]GPSSGAPPPSGS-NH2 [Example 192] | 115 | 48.7 | 4.18 | 719 | 9.77 | 0.142 | 560 | 9.86
H-Y[Aib]QGTFTSDFS[Orn][αMeL]LDKK([AEEA-γGlu-γGlu-C18 diacid])AQ[Aib]AFIEYLLE[Aib]GPSSGAPPPSGT-NH2 [Example 278] | 251 | 68.6 | 4.45 | 241 | 4.11 | 0.0963 | 274 | 7.69
H-Y[Aib]QGTFTSDFS[Orn][αMeL]LDKK([AEEA-γGlu-γGlu-C18 diacid])AQ[Aib]AFIEYLLE[Aib]GPSSGAPPPSG[4Pal]-NH2 [Example 279] | 115 | 37.5 | 5.06 | 367 | 5.77 | 0.105 | 427 | 11.6
H-Y[Aib]QGTFTSDFS[Orn][αMeL]LDKK([γGlu-AEEA-γGlu-C18 diacid])AQ[Aib]AFIEYLLE[Aib]GPSSGAPPPSGT-NH2 [Example 276] | 237 | 68.4 | 2.82 | 103 | 2.61 | 0.0708 | 113 | 6.28
H-Y[Aib]QGTFTSDYSK[αMeL]LDKK([AEEA-γGlu-C18 diacid])AQ[Aib]AFIEYLLEGGESSGAPPPSGS-NH2 [Example 358] | 21.5 | 83.1 | 2.78 | 492 | 2.31 | 0.182 | 876 | 38.8
H-Y[Aib]QGTFTSDYSQ[αMeL]LDKK([AEEA-γGlu-C18 diacid])AQ[Aib]AFIEYLLEGGESSGAPPPSGS-NH2 [Example 362] | 22.8 | 77.5 | 6.04 | 450 | 1.77 | 0.262 | 1450 | 38.7
H-Y[Aib]QGTFTSDYS[Dap][αMeL]LDKK([AEEA-γGlu-C18 diacid])AQ[Aib]AFIEYLLEGGESSGAPPPSGS-NH2 [Example 360] | 214 | 66.1 | 5.28 | 989 | 5.86 | 0.45 | 1470 | 78.3
H-Y[Aib]QGTFTSDYS[Orn][αMeL]LDKK([AEEA-γGlu-C18 diacid])AQ[Aib]AFIEYLLEGGESSGAPPPSGS-NH2 [Example 359] | 49.6 | 74.4 | 2.1 | 826 | 4.61 | 0.281 | 957 | 103
H-Y[Aib]QGTFTSD[4Pal]SK[αMeL]LDKK([AEEA-γGlu-C18 diacid])AQ[Aib]AFIEYLIA[Aib]GESSGAPPPSGS-NH2 [Example 285] | 59.9 | 73.6 | 2.32 | 365 | 2.87 | 0.0652 | 409 | 8.22
H-Y[Aib]QGTFTSD[4Pal]SK[αMeL]LDKK([AEEA-γGlu-C18 diacid])AQ[Aib]AFIEYLIE[Aib]GESSGAPPPSGS-NH2 [Example 280] | 39.4 | 74.9 | 8.63 | 171 | 0.95 | 0.105 | 1600 | 15.6
H-Y[Aib]QGTFTSD[4Pal]SK[αMeL]LDKK([AEEA-γGlu-C18 diacid])AQ[Aib]AFIEYLIE[Aib]GESSGEPPPSGS-NH2 [Example 282] | 28.7 | 71.9 | 6.98 | 217 | 1.09 | 0.163 | 1830 | 22.1
